According to paper PMC10328743, “5-Nitro-3-(2-(4-phenylthiazol-2-yl)hydrazineylidene)indolin-2-one derivatives inhibit HIV-1 replication by a multitarget mechanism of action” (Frontiers in Cellular and Infection Microbiology, 2023):

What was measured:
[1] = system: HIV-1 RTs bearing K103N, Y181C, and Y188L (RNase H); assay: RNase H activity of HIV-1 RTs bearing K103N, Y181C and Y188L substitutions; format: biochemical; settings: all cases
Protocol: K103N, Y181C, and Y188L mutations were introduced into the p6HRT-prot vector using the QuikChange protocol (Agilent Technologies, Santa Clara, CA, USA). Enzymes were expressed and purified as the wt-HIV-1 RT.
HIV RT-associated RNase H activity was measured as described ([Corona et al., 2016b]) in a 100-µl reaction volume containing 50 mM of Tris-HCl buffer, pH 7.8, 6 mM of MgCl2, 1 mM of dithiothreitol (DTT), 80 mM of KCl, 0.25 µM of hybrid RNA/DNA 5′-[…]-Fluorescin-3′ (high-performance liquid chromatography (HPLC), dry, QC: Mass Check) (available from Metabion) 5′-Dabcyl-[…]-3′ (HPLC, dry, QC: Mass Check), increasing concentrations of inhibitors, whose dilution were made in water, and different amounts of enzymes according to a linear range of the dose–response curve. The reaction mixture was incubated for 1 h at 37°C and stopped by the addition of EDTA, and products were measured with a multilabel counter plate reader Victor 3 equipped with filters for 490/528 nm.

[2] = biological target: T1, HIV-1 IN (LEDGF/p75-dependent) (Human immunodeficiency virus type 1 group M subtype B, UniProt P12497); assay: biochemical; format: biochemical; settings: strand-transfer activity in the presence of LEDGF/p75; for IC50: read-out: IC50 IN LEDGF-dependent integration
T1 construct: Preparation of recombinant full-length IN and LEDGF proteins; made in house; host or cells: E. coli BL21(DE3)
Protocol: (§1) Proteins were expressed in E. coli BL21(DE3). Briefly, His-IN was purified by loading the precipitate of cell lysate onto a Ni-Sepharose column and eluting with a […] imidazole gradient (0–500 mM) in a HEPES buffer (50 mM, pH 7.5) containing NaCl (1 M), CHAPS (7.5 mM), and β-mercaptoethanol (2 mM). FLAG-IN was purified by loading the precipitate of cell lysate onto a phenyl-sepharose and ammonium sulfate gradient (0–800 mM) in a HEPES (pH 7.5, 50 mM) buffer containing NaCl (200 mM), CHAPS (7.5 mM), and β-mercaptoethanol (2 mM). Peak fractions were pooled, loaded onto a heparin column, and eluted with an increasing NaCl gradient (200 mM to 1 M) in a HEPES (pH 7.5, 50 mM) buffer containing CHAPS (7.5 mm) and β-mercaptoethanol (2 mM). Fractions containing integrase were pooled and stored in glycerol (10%) at −80°C.
Briefly, IN (50 nM) was preincubated with increasing concentrations of compounds for 1 h at room temperature in a reaction buffer containing HEPES (20 mM, pH 7.5), DTT (1 mM), glycerol (1%), MgCl2 (20 mM), Brij-35 (0.05%), and bovine serum albumin (BSA) (0.1 mg/ml).

[3] = system: HIV-1; assay: Quantification of viral DNA genomes by qPCR in infected MT4 cells; format: cell-based; settings: single HIV-1 replication cycle; for total viral DNA: increasing concentrations
Protocol: Quantitative PCR (qPCR) was performed as described previously ([Munir et al., 2013]). […] Cells were washed in phosphate-buffered saline (PBS), and dry cell pellets were frozen at −80°C until use. DNA from samples was purified with QIAamp DNA Blood mini kit (Qiagen, Valencia, CA, USA) according to the manufacturer’s instructions. Quantification of total viral DNAs, 2-LTR circular viral DNA (2-LTRc), and integrated DNAs was performed on a LightCycler instrument (Roche Diagnostics, Basel, Switzerland) using the second-derivative-maximum method provided by the LightCycler quantification software, version 3.5 (Roche Diagnostics). Amplification of the β-globin gene (two copies per diploid cell) was performed to normalize the results using the commercially available materials (Control kit DNA; Roche Diagnostics). The quantification of the results for 2-LTRc and total HIV-1 DNA was expressed as copy numbers per µg DNA. Integrated HIV-1 DNA was expressed as a percentage of wt control. Data were represented by mean and standard deviation of two independent experiments; p-values were calculated between the infected and infected-treated conditions by unpaired, two-tailed t-tests using GraphPad Prism Version 9.5.1 software (GraphPad Software, Inc., San Diego, CA, USA). Figures were drawn with GraphPad Prism Version 9.5.1.

[4] = biological target: T2, HIV-1 IN-IN subunit exchange (Human immunodeficiency virus type 1 group M subtype B, UniProt P12497); assay: HTRF-based IN subunit exchange assay; format: binding
T2 construct: Preparation of recombinant full-length IN and LEDGF proteins; made in house; host or cells: E. coli BL21(DE3)
Protocol: as §1
His and FLAG-tagged INs were mixed in Tris (pH 7.4, 25 mm) buffer containing NaCl (150 mm), MgCl2 (2 mM), Nonidet P-40 (0.1%), and BSA (1 mg/ml). Test compounds were then added to the mixture, and incubation was carried out for 2.5 h at room temperature.

Compound | increase in IC50 values vs wt RT, RNase H function [1] | IC50 IN LEDGF-dependent integration [2] | IC50 [2] [µM] | DNA 2LTRc levels [3] | total viral DNA [3] | IC50 [4] [µM] | integrated viral DNA ([3]; 48 h)
O=C1Nc2ccc(Cl)cc2/C1=N/Nc1nc(-c2ccc(Cl)c(Cl)c2)cs1 [9b] | less than threefold | not able to inhibit IN | > 100 | no increase | decrease in total viral DNA | > 100 | 
Cc1ccc(-c2csc(N/N=C3\C(=O)Nc4ccc([N+](=O)[O-])cc43)n2)cc1 [10a] | less than threefold |  | 32.3 ± 2.7 | marked increase | decrease in total viral DNA | 11.5 ± 1.5 | significantly more marked effect than 9b
